# Assays:
# [1] = target: T1, HSP90a protein (Homo sapiens, UniProt P07900); experiment: HSP90α-binding fluorescent polarization (FP) assay, BODIPY-labeled RNK04010 probe; conditions: FP competition with RNK04010 (BODIPY-labeled), 5 nM, 300 min at 25° C.
# T1 construct: purchased BPS Bioscience 50298
# How it was run: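 Compound dilutions (20 μM to 5.2 nM, 2.5-fold) are combined with 5 nM final labeled probe, and HSP90a N-terminal protein is added last. Plates are shaken briefly and held at 25° C for 120 min (FITC-geldanamycin) or 300 min (BODIPY-RNK04010), then FP is measured.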
# [2] = tested on: NCI-H358 human non-small cell lung cancer; experiment: NCI-H358 CCK-8 proliferation assay; assay type: cell-based; conditions: NCI-H358 cells, 72 hr
# How it was run: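 Compounds were tested as a 3-fold series from 20 μM down to 1.02 nM in CCK-8 absorbance assays. The lines used were NCI-H23 and NCI-H358, each with 1 KRAS(G12C) copy, and MIA PaCa-2 with 2 copies. Inhibition was derived relative to DMSO controls, with a no-cell blank subtracted.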
Compound,IC50 [1] [nM],EC50 [2] [nM]
"C=CC(=O)N1CCN(c2nc(NCCC(=O)NCCc3ccc(-n4c(O)nnc4-c4cc(C(C)C)c(O)cc4O)cc3)nc3c2CCN(c2cc(O)cc4ccccc24)C3)CC1 [Compound 4, 3-((4-(4-acryloylpiperazin-1-yl)-7-(3-hydroxynaphthalen-1-yl)-5,6,7,8-tetrahydropyrido[3,4-d]pyrimidin-2-yl)amino)-N-(4-(3-(2,4-dihydroxy-5-isopropylphenyl)-5-hydroxy-4H-1,2,4-triazol-4-yl)phenethyl)propanamide, trifluoroacetic acid]",100 to 1000,> 1000
"CCc1cc(C(=O)N2Cc3ccc(CN4CCN(C(=O)CCNc5nc6c(c(N7CCN(C(C)=O)CC7)n5)CCN(c5cc(O)cc7ccccc57)C6)CC4)cc3C2)c(O)cc1O [Compound 67, 3-((4-(4-acetylpiperazin-1-yl)-7-(3-hydroxynaphthalen-1-yl)-5,6,7,8-tetrahydropyrido[3,4-d]pyrimidin-2-yl)amino)-1-(4-((2-(5-ethyl-2,4-dihydroxybenzoyl)isoindolin-5-yl)methyl)piperazin-1-yl)propan-1-one, trifluoroacetic acid]",100 to 1000,> 1000
"C=CC(=O)N1CCN(c2nc(NCCC(=O)NCc3ccc(-n4c(O)nnc4-c4ccc(O)cc4O)cc3)nc3c2CCN(c2cccc4cccc(Cl)c24)C3)C[C@@H]1CC#N [Compound 111, (S)-3-((4-(4-acryloyl-3-(cyanomethyl)piperazin-1-yl)-7-(8-chloronaphthalen-1-yl)-5,6,7,8-tetrahydropyrido[3,4-d]pyrimidin-2-yl)amino)-N-(4-(3-(2,4-dihydroxyphenyl)-5-hydroxy-4H-1,2,4-triazol-4-yl)benzyl)propanamide, trifluoroacetic acid]",> 1000,> 1000
"CCC(=O)N1CCN(c2nc(NCCC(=O)N3CCN(Cc4ccc5c(c4)CN(C(=O)c4cc(CC)c(O)cc4O)C5)CC3)nc3c2CCN(c2cc(O)cc4ccccc24)C3)CC1 [Compound 66, 1-(4-((2-(5-ethyl-2,4-dihydroxybenzoyl)isoindolin-5-yl)methyl)piperazin-1-yl)-3-((7-(3-hydroxynaphthalen-1-yl)-4-(4-propionylpiperazin-1-yl)-5,6,7,8-tetrahydropyrido[3,4-d]pyrimidin-2-yl)amino)propan-1-one, trifluoroacetic acid]",> 1000,> 1000
"CC(=O)N1CCN(c2nc(NCCC(=O)N3CCN(Cc4ccc(-n5c(O)nnc5-c5cc(C(C)C)c(O)cc5O)cc4)CC3)nc3c2CCN(c2cc(O)cc4ccccc24)C3)CC1 [Compound 26, 3-((4-(4-acetylpiperazin-1-yl)-7-(3-hydroxynaphthalen-1-yl)-5,6,7,8-tetrahydropyrido[3,4-d]pyrimidin-2-yl)amino)-1-(4-(4-(3-(2,4-dihydroxy-5-isopropylphenyl)-5-hydroxy-4H-1,2,4-triazol-4-yl)benzyl)piperazin-1-yl)propan-1-one, trifluoroacetic acid]",100 to 1000,> 1000
"C=CC(=O)N1CCN(c2nc(NCCC(=O)NCc3ccc(-n4c(O)nnc4-c4cc(C(C)C)c(O)cc4O)cc3)nc3c2CCN(c2cccc4ccccc24)C3)C[C@H]1CC#N [Compound 91, (R)-3-((4-(4-acryloyl-3-(cyanomethyl)piperazin-1-yl)-7-(naphthalen-1-yl)-5,6,7,8-tetrahydropyrido[3,4-d]pyrimidin-2-yl)amino)-N-(4-(3-(2,4-dihydroxy-5-isopropylphenyl)-5-hydroxy-4H-1,2,4-triazol-4-yl)benzyl)propanamide, trifluoroacetic acid]",> 1000,> 1000
"C=CC(=O)N1CCN(c2nc(NCCC(=O)N3CCC(CN4CCN(Cc5ccc(-n6c(O)nnc6-c6ccc(O)cc6O)cc5)CC4)CC3)nc3c2CCN(c2cc(O)cc4ccccc24)C3)CC1 [Compound 13, 1-(4-(2-((3-(4-((4-(4-(3-(2,4-dihydroxyphenyl)-5-hydroxy-4H-1,2,4-triazol-4-yl)benzyl)piperazin-1-yl)methyl)piperidin-1-yl)-3-oxopropyl)amino)-7-(3-hydroxynaphthalen-1-yl)-5,6,7,8-tetrahydropyrido[3,4-d]pyrimidin-4-yl)piperazin-1-yl)prop-2-en-1-one, trifluoroacetic acid]",> 1000,> 1000
"CCC(=O)N1CCN(c2nc(NCCC(=O)NCCOCCOc3ccc(-n4c(O)nnc4-c4cc(C(C)C)c(O)cc4O)cc3)nc3c2CCN(c2cc(O)cc4ccccc24)C3)CC1 [Compound 73, N-(2-(2-(4-(3-(2,4-dihydroxy-5-isopropylphenyl)-5-hydroxy-4H-1,2,4-triazol-4-yl)phenoxy)ethoxy)ethyl)-3-((7-(3-hydroxynaphthalen-1-yl)-4-(4-propionylpiperazin-1-yl)-5,6,7,8-tetrahydropyrido[3,4-d]pyrimidin-2-yl)amino)propanamide, trifluoroacetic acid]",100 to 1000,> 1000
"C=CC(=O)N1CCN(c2nc(NCCC(=O)NCCOCCOc3ccc(-n4c(O)nnc4-c4cc(C(C)C)c(O)cc4O)cc3)nc3c2CCN(c2cc(O)cc4ccccc24)C3)CC1 [Compound 72, trifluoroacetic acid]",< 100,> 1000
"CCC(=O)N1CCN(c2nc(NCCC(=O)N3CCN(Cc4ccc5c(c4)CN(C(=O)c4cc(C(C)C)c(O)cc4O)C5)CC3)nc3c2CCN(c2cc(O)cc4ccccc24)C3)CC1 [Compound 57, 1-(4-((2-(2,4-dihydroxy-5-isopropylbenzoyl)isoindolin-5-yl)methyl)piperazin-1-yl)-3-((7-(3-hydroxynaphthalen-1-yl)-4-(4-propionylpiperazin-1-yl)-5,6,7,8-tetrahydropyrido[3,4-d]pyrimidin-2-yl)amino)propan-1-one, trifluoroacetic acid]",100 to 1000,> 1000
"C=CC(=O)N1CCN(c2nc(NCCC(=O)N3CCN(Cc4ccc5c(c4)CN(C(=O)c4cc(CCC)c(O)cc4O)C5)CC3)nc3c2CCN(c2cc(O)cc4ccccc24)C3)CC1 [Compound 94, 1-(4-(2-((3-(4-((2-(2,4-dihydroxy-5-propylbenzoyl)isoindolin-5-yl)methyl)piperazin-1-yl)-3-oxopropyl)amino)-7-(3-hydroxynaphthalen-1-yl)-5,6,7,8-tetrahydropyrido[3,4-d]pyrimidin-4-yl)piperazin-1-yl)prop-2-en-1-one, trifluoroacetic acid]",> 1000,> 1000
"C=CC(=O)N1CCN(c2nc(NCCC(=O)N3CCN(Cc4ccc5c(c4F)CN(C(=O)c4cc(C)c(O)cc4O)C5)CC3)nc3c2CCN(c2cc(O)cc4ccccc24)C3)CC1 [Compound 107, 1-(4-(2-((3-(4-((2-(2,4-dihydroxy-5-methylbenzoyl)-4-fluoroisoindolin-5-yl)methyl)piperazin-1-yl)-3-oxopropyl)amino)-7-(3-hydroxynaphthalen-1-yl)-5,6,7,8-tetrahydropyrido[3,4-d]pyrimidin-4-yl)piperazin-1-yl)prop-2-en-1-one, trifluoroacetic acid]",> 1000,> 1000
"CC(=O)N1CCN(c2nc(NCCC(=O)NCc3ccc(-n4c(O)nnc4-c4cc(C(C)C)c(O)cc4O)cc3C(F)(F)F)nc3c2CCN(c2cc(O)cc4ccccc24)C3)CC1 [Compound 42, 3-((4-(4-acetylpiperazin-1-yl)-7-(3-hydroxynaphthalen-1-yl)-5,6,7,8-tetrahydropyrido[3,4-d]pyrimidin-2-yl)amino)-N-(4-(3-(2,4-dihydroxy-5-isopropylphenyl)-5-hydroxy-4H-1,2,4-triazol-4-yl)-2-(trifluoromethyl)benzyl)propanamide, trifluoroacetic acid]",100 to 1000,> 1000
"C=CC(=O)N1CCN(c2nc(NCCC(=O)NCc3ccc(-n4c(O)nnc4-c4ccc(O)cc4O)cc3)nc3c2CCN(c2cc(O)cc4ccccc24)C3)CC1 [Compound 27, 3-((4-(4-acryloylpiperazin-1-yl)-7-(3-hydroxynaphthalen-1-yl)-5,6,7,8-tetrahydropyrido[3,4-d]pyrimidin-2-yl)amino)-N-(4-(3-(2,4-dihydroxyphenyl)-5-hydroxy-4H-1,2,4-triazol-4-yl)benzyl)propanamide, trifluoroacetic acid]",> 1000,> 1000
"C=CC(=O)N1CCN(c2nc(NCCC(=O)NCc3ccc(CN4CCC(Cc5ccc(-n6c(C(=O)NCC(F)(F)F)nnc6-c6cc(CC)c(O)cc6O)cc5)CC4)cc3)nc3c2CCN(c2cc(O)cc4ccccc24)C3)CC1 [Compound 125, 4-(4-((1-(4-((3-((4-(4-acryloylpiperazin-1-yl)-7-(3-hydroxynaphthalen-1-yl)-5,6,7,8-tetrahydropyrido[3,4-d]pyrimidin-2-yl)amino)propanamido)methyl)benzyl)piperidin-4-yl)methyl)phenyl)-5-(5-ethyl-2,4-dihydroxyphenyl)-N-(2,2,2-trifluoroethyl)-4H-1,2,4-triazole-3-carboxamide, trifluoroacetic acid]",100 to 1000,100 to 1000
"CCC(=O)N1CCN(c2nc(NCCC(=O)NCc3ccc(-n4c(O)nnc4-c4cc(C(C)C)c(O)cc4O)cc3C(F)(F)F)nc3c2CCN(c2cc(O)cc4ccccc24)C3)CC1 [Compound 46, N-(4-(3-(2,4-dihydroxy-5-isopropylphenyl)-5-hydroxy-4H-1,2,4-triazol-4-yl)-2-(trifluoromethyl)benzyl)-3-((7-(3-hydroxynaphthalen-1-yl)-4-(4-propionylpiperazin-1-yl)-5,6,7,8-tetrahydropyrido[3,4-d]pyrimidin-2-yl)amino)propenamide]",100 to 1000,> 1000
